In ChEMBL document CHEMBL1671795, “Evaluation of endogenous fatty acid amides and their synthetic analogues as potential anti-inflammatory leads” (Bioorg Med Chem, 2011):

Legend:
[1] = test system: HaCaT; experiment: Antiinflammatory activity against IFN-gamma-stimulated human HaCaT cells assessed as inhibition of chemokine MDC production at 50 to 100 uM after 18 hrs by ELISA; assay type: functional, cell-based
[2] = test system: HaCaT; experiment: Cytotoxicity against human HaCaT cells at 50 to 100 uM after 24 hrs by MTT assay; assay type: cell-based
[3] = test system: RAW264.7; experiment: Cytotoxicity against mouse RAW264.7 cells at 50 uM after 24 hrs by MTT assay; assay type: cell-based; settings: raw264.7, 24 h
[4] = test system: RAW264.7; experiment: Cytotoxicity against mouse RAW264.7 cells at 100 uM after 24 hrs by MTT assay; assay type: cell-based; settings: raw264.7, 24 h
[5] = test system: RAW264.7; experiment: Antiinflammatory activity against LPS-stimulated mouse RAW264.7 cells assessed as inhibition of NO production at 3.125 to 25 uM after 24 hrs by Griess method; assay type: functional, cell-based

| SMILES | Activity [1] | Activity [2] | Activity [3] | Activity [4] | Activity [5] |
| --- | --- | --- | --- | --- | --- |
| CC/C=C\C/C=C\C/C=C\CCCCCCCC(=O)NCCO | Non-toxic | Toxic | – | – | – |
| CCCCCCCC(=O)/C=C/CCCCCCCC(=O)NCC(O)CO (racemic) | Non-toxic | Toxic | Toxic | Toxic | – |
| CCCCCCC/C=C/C(=O)CCCCCCCC(=O)NCCc1ccc(O)c(O)c1 | Non-toxic | Toxic | Toxic | Toxic | – |
| CCCCCCCCC(=O)/C=C/CCCCCCC(=O)N[C@H](C)CO | Non-toxic | Toxic | Toxic | Toxic | Dose-dependent effect |
| CCCCC/C=C\C/C=C\CCCCCCCC(=O)NCC(=O)O [LINOLEOYL GLYCINE] | Non-toxic | Toxic | – | – | – |
| CCCCCCCCCCCCCCCC(=O)NCCO [PALMIDROL] | Non-toxic | Toxic | – | – | – |
| CCCCCCC/C=C/C(=O)CCCCCCCC(=O)NCC(O)CO (racemic) | Non-toxic | Toxic | Toxic | Toxic | – |
| CCCCCCCCCCCCCCCC(=O)N[C@H](C)CO | Non-toxic | Toxic | – | – | – |
| CCCCC/C=C\C/C=C\CCCCCCCC(=O)NCC(O)CO (racemic) | Non-toxic | Toxic | – | – | – |
| CCCCCCCC(=O)/C=C/CCCCCCCC(=O)NCCCl | Non-toxic | Toxic | Toxic | Toxic | – |
| CCCCCCCCCCCCCCCC(=O)NCCCl | Non-toxic | Toxic | – | – | – |
| CCCCCCCC/C=C/C(=O)CCCCCCC(=O)NCCO | Non-toxic | Toxic | Toxic | Toxic | – |
| CCCCCCC/C=C/C(=O)CCCCCCCC(=O)NCCCl | Non-toxic | Toxic | Toxic | Toxic | – |
| CCCCCCCC(=O)/C=C/CCCCCCCC(=O)N[C@H](C)CO | Non-toxic | Toxic | Toxic | Toxic | – |
| CCCCCCCCC(=O)/C=C/CCCCCCC(=O)NC(C)C | Non-toxic | Toxic | Toxic | Toxic | Dose-dependent effect |
| CCCCCCCCCCCCCCCC(=O)NCC(O)CO (racemic) | Non-toxic | Toxic | – | – | – |
| CC/C=C\C/C=C\C/C=C\CCCCCCCC(=O)NCC(O)CO (racemic) | Non-toxic | Toxic | – | – | – |
| CC/C=C\C/C=C\C/C=C\CCCCCCCC(=O)NCCc1c[nH]c2ccc(O)cc12 | Non-toxic | Toxic | – | – | – |
| CCCCCCCC/C=C\CCCCCCCC(=O)NC(C)C | Non-toxic | Toxic | – | – | – |
| CCCCCCCC/C=C\CCCCCCCCCCCC(=O)NCCO | Non-toxic | Toxic | – | – | – |

| SMILES | Activity [1] | Activity [2] | Activity [3] | Activity [4] | Activity [5] |
| --- | --- | --- | --- | --- | --- |
| CCCCCCC/C=C/C(=O)CCCCCCCC(=O)NCC(=O)O | Non-toxic | Toxic | Toxic | Toxic | Dose-dependent effect |
| CCCCCCCC(=O)/C=C/CCCCCCCC(=O)NCCO | Non-toxic | Toxic | Toxic | Toxic | – |
| CCCCCCCC/C=C/C(=O)CCCCCCC(=O)NC(C)C | Non-toxic | Toxic | Toxic | Toxic | – |
| CCCCCCC/C=C/C(=O)CCCCCCCC(=O)NC(C)C | Non-toxic | Toxic | Toxic | Toxic | – |
| CCCCC/C=C\C/C=C\CCCCCCCC(=O)NC(C)C | Non-toxic | Toxic | – | – | – |
| CCCCCCCC/C=C\CCCCCCCC(=O)NCCCl | Non-toxic | Toxic | – | – | – |
| CCCCCCCCCCCCCCCC(=O)NCC(=O)O [PALMITOYL GLYCINE] | Non-toxic | Toxic | – | – | – |
| CCCCCCCC/C=C\CCCCCCCC(=O)N[C@H](C)CO | Non-toxic | Toxic | – | – | – |
| CCCCCCCC/C=C\CCCCCCCCCCCC(=O)NC(C)C | Non-toxic | Toxic | – | – | – |
| CCCCCCCC/C=C\CCCCCCCC(=O)NCC(=O)O [OLEOYL GLYCINE] | Non-toxic | Toxic | – | – | – |
| CC/C=C\C/C=C\C/C=C\CCCCCCCC(=O)NC(C)C | Non-toxic | Toxic | – | – | – |
| CCCCCCCCC(=O)/C=C/CCCCCCC(=O)NCCO | Non-toxic | Toxic | Toxic | Toxic | Dose-dependent effect |
| CC/C=C\C/C=C\C/C=C\CCCCCCCC(=O)NCC(=O)O | Non-toxic | Toxic | – | – | – |
| CC/C=C\C/C=C\C/C=C\CCCCCCCC(=O)O [LINOLENIC ACID] | Non-toxic | Toxic | – | – | – |
| CCCCCCC/C=C/C(=O)CCCCCCCC(=O)NCCO | Non-toxic | Toxic | Toxic | Toxic | – |
| CC/C=C\C/C=C\C/C=C\CCCCCCCC(=O)NCCCl | Non-toxic | Toxic | – | – | – |
| CCCCCCCC/C=C/C(=O)CCCCCCC(=O)NCCc1c[nH]c2ccc(O)cc12 | Non-toxic | Toxic | Toxic | Toxic | – |
| CCCCCCCCCCCCCCCC(=O)NC(C)C [HEXADECANOIC ACID ISOPROPYLAMIDE] | Non-toxic | Toxic | – | – | – |
| CCCCC/C=C\C/C=C\CCCCCCCC(=O)N[C@H](C)CO | Non-toxic | Toxic | – | – | – |
| CCCCCCCC/C=C/C(=O)CCCCCCC(=O)NCCCl | Non-toxic | Toxic | Toxic | Toxic | – |

| SMILES | Activity [1] | Activity [2] | Activity [3] | Activity [4] | Activity [5] |
| --- | --- | --- | --- | --- | --- |
| CCCCCCCCC(=O)/C=C/CCCCCCC(=O)NCCc1c[nH]c2ccc(O)cc12 | Non-toxic | Toxic | Toxic | Toxic | Dose-dependent effect |
| CCCCCCCCC(=O)/C=C/CCCCCCC(=O)NCC(O)CO (racemic) | Non-toxic | Toxic | Toxic | Toxic | Dose-dependent effect |
| CCCCCCCC(=O)/C=C/CCCCCCCC(=O)NCCc1c[nH]c2ccc(O)cc12 | Non-toxic | Toxic | Toxic | Toxic | – |
| CCCCCCCC/C=C\CCCCCCCC(=O)NCC(O)CO (racemic) | Non-toxic | Toxic | – | – | – |
| CCCCCCCC/C=C/C(=O)CCCCCCC(=O)NCC(O)CO (racemic) | Non-toxic | Toxic | Toxic | Toxic | – |
| CC/C=C\C/C=C\C/C=C\CCCCCCCC(=O)N[C@H](C)CO | Non-toxic | Toxic | – | – | – |
| CCCCCCCC/C=C\CCCCCCCCCCCC(=O)NCC(O)CO (racemic) | Non-toxic | Toxic | – | – | – |
| CCCCCCCC(=O)/C=C/CCCCCCCC(=O)NCCc1ccc(O)c(O)c1 | Non-toxic | Toxic | Toxic | Toxic | – |
| CCCCCCCC/C=C\CCCCCCCC(=O)NCCO [OLEOYLETHANOLAMIDE] | Non-toxic | Toxic | – | – | – |
| CCCCCCCC/C=C/C(=O)CCCCCCC(=O)NCC(=O)O | Non-toxic | Toxic | Toxic | Toxic | Dose-dependent effect |
| CCCCCCCC/C=C/C(=O)CCCCCCC(=O)N[C@H](C)CO | Non-toxic | Toxic | Toxic | Toxic | – |
| CCCCCCCC/C=C/C(=O)CCCCCCC(=O)NCCc1ccc(O)c(O)c1 | Non-toxic | Toxic | Toxic | Toxic | – |
| CCCCCCC/C=C/C(=O)CCCCCCCC(=O)NCCc1c[nH]c2ccc(O)cc12 | Non-toxic | Toxic | Toxic | Toxic | – |
| CCCCC/C=C\C/C=C\CCCCCCCC(=O)NCCO [LINOLEOYLETHANOLAMIDE] | Non-toxic | Toxic | – | – | – |
| CCCCCCC/C=C/C(=O)CCCCCCCC(=O)N[C@H](C)CO | Non-toxic | Toxic | Toxic | Toxic | – |
| CCCCCCCC/C=C\CCCCCCCCCCCC(=O)NCCCl | Non-toxic | Toxic | – | – | – |
| CCCCCCCC/C=C\CCCCCCCCCCCC(=O)N[C@H](C)CO | Non-toxic | Toxic | – | – | – |
| CCCCCCCC(=O)/C=C/CCCCCCCC(=O)NC(C)C | Non-toxic | Toxic | Toxic | Toxic | – |
| CCCCCCCCC(=O)/C=C/CCCCCCC(=O)NCCCl | Non-toxic | Toxic | Toxic | Toxic | Dose-dependent effect |
| CCCCC/C=C\C/C=C\CCCCCCCC(=O)NCCCl | Non-toxic | Toxic | – | – | – |
